In PMC13083723 (Patterns, 2026):
Where “and” joins values, the source holds several entries; their conditions need not be identical. Equal entries are not always repeated. Structures can show the parent of a compound that is named as a salt. Where two headings read alike, the source gives them in different places.

Columns and labels:
[1] = tested on: A549-ACE2 cells; assay: cells; type: cell-based; conditions: for activation at 10 µM: A549-ACE2, 24 h, read-out: PLD_Effect(%) A549-ACE2
[2] = tested on: Vero-E6 cells; assay: cells; type: cell-based; conditions: for activation at 10 µM: Chlorocebus sabaeus, Vero C1008, 24 h
[3] = cited from earlier work; for AC50: read-out: AC50 (value); for IC50: read-out: IC50 (value)
[4] = read-out: PLD_Effect(%) VERO-E6
[5] = value is the negative log10 of mol/L

SMILES	activation at 10 µM [1]	activation at 10 µM [2, 4]	other results
CCc1cc(Cl)c(OC)c(C(=O)NC[C@@H]2CCCN2CC)c1O [eticlopride, reference compound]			result_KI [1]: 92.2773 percent effect; result_ITMP [2]: 41.39 percent effect
O=C(NCCN1CCC2(CC1)C(=O)NCN2c1cccc(F)c1)c1ccc(F)c(F)c1 [ML-298]	97%	60.1%	
CN(C)CCCN1c2ccccc2Sc2ccc(C(F)(F)F)cc21 [TRIFLUPROMAZINE HYDROCHLORIDE]			AC50 [3]: 3 nM
O=C1NC(=O)c2cc(Nc3ccccc3)c(Nc3ccccc3)cc21 [CGP-52411, reference compound]			result_KI [1]: -10.8674 percent effect; result_ITMP [2]: -7.23 percent effect; activation at 10 µM ([2]; read-out: PL_Result): -10.9%
CN(C(=O)Cc1ccc(Cl)c(Cl)c1)[C@H](CN1CCCC1)c1ccccc1 [ICI-199441]	99.8%	53.5%	IC50 [3]: 26 nM; pchembl_value (IC50) [3, 5]: 7.58
COc1cc2c(cc1O)C(CCc1ccc(Cl)cc1)N(C)CC2 (stereo not shown) [Ro-04-5595]	61%	64%	
CC(C)c1cnn2c(NCc3ccccc3)cc(NCCCCCCN)nc12 [BS-181]	63.8%	53.6%	IC50 [3]: 21 nM
OCCN1CCN(CC/C=C2/c3ccccc3Sc3ccc(C(F)(F)F)cc32)CC1 [Flupentixol]	81.9%	83.6%	Log IC50 (value) [3]: -8.65; pchembl_value (Log IC50) [3]: 8.65
CC(COc1ccccc1Cc1ccccc1)N1CCCCC1 (stereo not shown) [Benproperine Phosphate]	81.6%	72%	
Cc1[nH]c2ccc(Cl)cc2c1C1=CCNCC1 [EMD-386088]	79.1%	96.8%	
COc1cccc(CCc2ccccc2OCC[C@@H]2C[C@@H](O)CN2C)c1 [R-96544]	92.6%	90.4%	
C[C@@H]1CN(CCCn2c3ccccc3c3ccccc32)C[C@H](C)N1 [rimcazole]	109%	99.9%	Log IC50 (value) [3]: -6.23; pchembl_value (Log IC50) [3]: 6.23; Ki ([3]; read-out: Ki (value)): 908 nM; pchembl_value (Ki) [3, 5]: 6.04
CCCOC(C(=O)OC1CCN(C)CC1)(c1ccccc1)c1ccccc1 [Propiverine Hydrochloride]	102%	63.8%	pchembl_value (AC50) [3]: 6.08 and 6.12; AC50 [3]: 830 nM and 750 nM
O=S(=O)(NCCNC/C=C/c1ccc(Br)cc1)c1cccc2cnccc12 [H-89]	98.9%	60.8%	IC50 [3]: 590 nM; Kd ([3]; read-out: Kd (value)): 24 nM; pchembl_value (Kd) [3, 5]: 7.62
CNCCC(Oc1ccc(C(F)(F)F)cc1)c1ccccc1 (stereo not shown) [FLUOXETINE HYDROCHLORIDE]	109%	54.3%	pchembl_value (AC50) [3]: 7.03 and 7.53
CN(C)CCCOc1nn(Cc2ccccc2)c2ccccc12 [BENZYDAMINE HYDROCHLORIDE]	65.2%	51.2%	

SMILES	activation at 10 µM [1]	activation at 10 µM [2, 4]	other results
CCC(C)CNCC(=O)N1CCc2sccc2C1COc1cccc(C)c1 (stereo not shown) [RU-SKI-43]	85.5%	57.8%	
CCCCN(CCCC)CCC(O)c1cc2c(Cl)cc(Cl)cc2c2cc(C(F)(F)F)ccc12 (stereo not shown) [Halofantrine?HCl]	77.7%	68.8%	
Cc1nc2ccc(Oc3ccc(F)cc3)cc2c(=O)n1C[C@H]1CCCN(C(C)C)C1 [YIL-781]	52.7%	56.3%	
O=C(O[C@H]1CN2CCC1CC2)N(Cc1cc(F)c(F)c(F)c1)c1cccc(F)c1 [Tarafenacin (D-tartrate)]	91.5%	71.4%	
CCn1c2ccccc2c2cc(CNC)ccc21 [PhiKan-083]	83.6%	73.3%	
COc1cc(CN(CCN)C(=O)c2cccs2)ccc1OCc1ccccc1 [M8-B]	72.2%	85.4%	
COc1ccc2[nH]c3c(-c4cccc5ccccc45)nccc3c2c1 [SP-141, reference compound]			result_KI [1]: -11.253 percent effect; result_ITMP [2]: 16.13 percent effect
O=C(Nc1ncc(SCCN2CCCC2)s1)[C@]1(c2ccc(S(=O)(=O)C3CC3)cc2)C[C@H]1C1CCCCC1 [LY2608204]	95.6%	55.8%	
CCSc1ccc2c(c1)N(CCCN1CCN(C)CC1)c1ccccc1S2 [thiethylperazine]	98%	59.1%	
CCn1c2ccccc2c2cc(CNCc3ccccc3OC)ccc21 [HLCL-61 (hydrochloride)]	83%	56.5%	
O[C@H]([C@H](O)[C@@H]1CO1)[C@H]1CO1 [VAL-083, reference compound]			result_KI [1]: -10.5072 percent effect; result_ITMP [2]: -1.6 percent effect
O=C(CN1C2=NCCN2c2ccccc21)c1ccc(-c2ccccc2)cc1 [CCT-031374]	69.9%	53.9%	
CC(=O)c1ccc2c(c1)N(CCCN1CCN(CCO)CC1)c1ccccc1S2 [ACETOPHENAZINE MALEATE]	52.6%	74.4%	
Clc1ccc2c(c1)N=C(N1CCNCC1)c1ccccc1N2 [desmethylclozapine]	89.5%	77.7%	
CN1CC2c3ccccc3Oc3ccc(Cl)cc3C2C1 (stereo not shown) [asenapine maleate]	66.1%	65.2%	
C[C@@H](O[C@H]1OCCN(Cc2nn[nH]c2CN(C)C)[C@H]1c1ccc(F)cc1)c1cc(C(F)(F)F)cc(C(F)(F)F)c1 [L-760735]	107%	71.2%	
